Values quoted from earlier work in patent US20150297607A1, “Tricyclic Lactams for Use in the Protection of Normal Cells During Chemotherapy” (G1 Therapeutics, Inc., priority 2014, published 2015).

Details: clinical trial; Grade 3/4 neutropenia and leukopenia

patients requiring a dose interruption: 71%
patients requiring a dose reduction: 35%
Structure (SMILES): CC(=O)c1c(C)c2cnc(Nc3ccc(N4CCNCC4)cn3)nc2n(C2CCCC2)c1=O [PD0332991, 6-acetyl-8-cyclopentyl-5-methyl-2-(5-piperazin-1-yl-pyridin-2-ylammino)-8H-pyrido-[2,3-d]-pyrimidin-7-one]
